From US20100016232A1, “Treatment Of Inflammatory Diseases With Mammal Beta Defensins” (Novozymes A/S, priority 2008, published 2010)
Marks after values point to notes of the source that are not given here. Where no end group is shown, it is not given here.

Experiments:
[1] = system: TNF production from human peripheral blood mononuclear cells (PBMC); assay: TNF production from human PBMC, Cytometric Bead Array; assay type: cell-based
Procedure: (§1) Peripheral blood was drawn from healthy volunteers (with approval from the relevant ethical committee in Denmark). Heparinized blood was diluted 1/1 v/v with RPMI and were subjected to Ficoll density centrifugation within 2 h of drawing. Plasma was collected from the top from individual donors and was kept on ice until it was used at 2% in the culture medium (autologous culture medium). Isolated PBMC were resuspended in autologous culture medium and seeded in 96-well culture plates with 255.000 cells per well in a total of 200 μl. […] The concentrations used for stimulation were optimized on 3 different donors in initial experiments, for LPS two different concentrations were used to be sure to be on a cytokine level that is possible to modulate. In some experiments PBMC were treated with Dexamethason and Indomethacin alone and together with LPS or LTA as a control on downregulation of inflammatory cytokines. The supernatants were collected after incubation at 37° C. for 24 hours, and stored at −80° C. until cytokine measurement. Viability was measured by Alamar Blue (Biosource, DALL 1100) in all experiments and in some cases also by MTS (Promega) according to manufacturer's instruction and was in some experiments also judged by counting of the cells by a Nucleocounter.
(§2) Cytokine production in supernatants was measured by flow cytometry with a human inflammation cytometric bead array (CBA) according to manufacturer's instructions (BD) on a FACSarray flow cytometer. The following cytokines were measured: IL-8, IL-1β, IL-10, TNF, IL-12 p70, IL-6. In some experiments, cytokines were measured by ELISA kits from R&D systems (IL-10, TNF-α, IL-1β) according to the manufacturer' instruction.

[2] = system: IL-1β production from human peripheral blood mononuclear cells (PBMC); assay: IL-1β production from human PBMC, Cytometric Bead Array; assay type: cell-based; details: concentration of control compound not given, Table 18
Procedure: as §1, §2

[3] = system: IL-10 production from human peripheral blood mononuclear cells (PBMC); assay: IL-10 production from human PBMC, Cytometric Bead Array; assay type: cell-based; details: concentration of control compound not given, Table 17
Procedure: as §1, §2

[4] = system: IL-23, human PBMC; assay: IL-23 in supernatants of human PBMC, ELISA; assay type: cell-based
Procedure: as §1, with “Nucleocounter. […]” for “Nucleocounter.”
(§3) Cell culture supernatants were collected and stored at −80° C. Amounts of IL-23 was measured by standard sandwich ELISA using commercially available antibodies and standards according to the manufacturer's protocols (eBioscience).

[5] = system: TNF production from mouse peripheral blood mononuclear cells (PBMC); assay: TNF production from mouse PBMC, Cytometric Bead Array; assay type: cell-based
Procedure: Mouse peripheral blood mononuclear cells were isolated from blood of ten NMRI mice. In short, heparinized blood was diluted 1/1 v/v with RPMI and subjected to Ficoll density centrifugation within 2 h of drawing. Plasma was collected from the top and discarded. Isolated PBMC were resuspended in culture medium (RPMI 1640 (Gibco, 42401) w/1% penicillin and streptomycin and 1% L-Glutamine) and seeded in 96-well culture plates with 115.500 cells per well in a total of 200 μl. […] The supernatants were collected after incubation at 37° C. for 24 hours, and stored at −80° C. until cytokine measurement.
Cytokine production in supernatants was measured by flow cytometry with a mouse inflammation cytometric bead array (CBA) according to manufacturer's instructions (BD) on a FACSarray flow cytometer.

[6] = system: IL-23, human CD14+ monocyte-derived dendritic cells; assay: IL-23 in supernatants of human CD14+ monocyte-derived dendritic cells, ELISA; assay type: cell-based; details: Dexamethasone 1 μM
Procedure: The DCs were prepared according to a modified protocol originally described by Romani et al. Briefly, peripheral blood mononuclear cells (PBMCs) were purified from buffy coats of healthy donors by centrifugation over a Ficoll-pague (GE-healthcare) gradient. Monocytes were isolated from PBMC by positive selection of CD14+ cells by magnetic beads (Dynal, Invitrogen) according to the manufacturer's instructions. The CD14+ monocytes were cultured in 6-well plates in RPMI/2% Human AB Serum recombinant human recombinant granulocyte-macrophage colony-stimulating factor (GM-CSF, 20 ng/ml) and IL-4 (20 ng/ml) (PeproTech) for 6 days, replenishing the medium/cytokines after 2 and 5 days.
as §3

[7] = system: collagen-induced arthritis (CIA) in the mouse; assay: Collagen-induced rheumatoid arthritis model, clinical arthritis score; assay type: in vivo; design: key: each paw scored 0-4 by ascending severity; total summed over paws; details: Group B, 1 mg/kg IP once daily
Procedure: All animals were subjected on Day 0 of the study (study commencement) to an intradermal injection into the tail of 0.1 ml Type II Collagen/CFA emulsion (200 μg collagen per mouse) under light Isoflurane anesthesia, using a plastic syringe. The location of injection was at an approximate caudal distance of about 1 cm from the base of the tail. A collagen challenge (200 μg/mouse) was presented to the animals by IP injection of collagen and PBS on Day 21.
Treatments were commenced on day 14 of the study and continued once daily throughout. All surviving mice were terminated on study day 42.
Mice were examined for signs of arthritogenic responses in peripheral joints on study day 0, 14, 21 and thereafter five times weekly until termination of the study. Arthritis reactions were reported for each paw according to a 0-4 scale in ascending order of severity as shown below:
In accordance with Home Office regulations mice with a total clinical score of equal to or greater than 12 were culled due to arthritis severity. The clinical score of these mice at termination was carried forward in the analysis for the remainder of the study in order that the data was not artificially skewed by the removal of high scoring mice.

[8] = LPS 0.6 ng/ml, concentration of control compound not given, Table 16
[9] = LPS 20 ng/ml, concentration of control compound not given, Table 16
[10] = LPS 20 ng/ml, treatment 1 μg/ml, Table 21
[11] = Medium, treatment 1 μg/ml, Table 21
[12] = LPS 20 ng/ml, treatment 1 μg/ml

Infliximab: antibody which binds to TNF-alpha (Remicade), positive control [reference compound]
TNF [1, 8]: 0 pg/mL | TNF % of control [1, 8]: 0% | TNF [1, 9]: 0 pg/mL | TNF % of control [1, 9]: 0% | TNF [1, 10]: 1 pg/mL | TNF ([1]; Medium, concentration of control compound not given, Table 16): 0 pg/mL | TNF [1, 11]: 0 pg/mL | IL-1β ([2]; LPS 0.6 ng/ml): 636 pg/mL | IL-1β % of control ([2]; LPS 0.6 ng/ml): 86% | IL-1β ([2]; LPS 20 ng/ml): 2704 pg/mL | IL-1β % of control ([2]; LPS 20 ng/ml): 106% | IL-1β ([2]; Medium): 0 pg/mL | IL-10 ([3]; LPS 0.6 ng/ml): 46 pg/mL | IL-10 % of control ([3]; LPS 0.6 ng/ml): 69% | IL-10 ([3]; LPS 20 ng/ml): 63 pg/mL | IL-10 % of control ([3]; LPS 20 ng/ml): 56% | IL-10 ([3]; Medium): 0 pg/mL | IL-23 ([4]; Control (medium), treatment 1 μg/ml): 227 pg/mL | IL-23 ([4]; LPS 0.6 ng/ml, treatment 1 μg/ml): 356 pg/mL | IL-23 [4, 12]: 373 pg/mL | IL-23 ([4]; LTA 5 μg/ml, treatment 1 μg/ml): 349 pg/mL | TNF [5, 12]: 2119 pg/mL | TNF ([5]; Medium, treatment 1 μg/ml): 530 pg/mL

C[C@@H]1C[C@H]2[C@@H]3CCC4=CC(=O)C=C[C@]4(C)[C@@]3(F)[C@@H](O)C[C@]2(C)[C@@]1(O)C(=O)CO [Dexamethasone, reference compound]
IL-1β % of control ([2]; LPS 0.6 ng/ml): 14% | IL-1β % of control ([2]; LPS 20 ng/ml): 44% | IL-10 % of control ([3]; LPS 0.6 ng/ml): 70% | IL-10 % of control ([3]; LPS 20 ng/ml): 67% | IL-23 ([6]; LPS (100 ng/ml) and IFN-γ (20 ng/ml)): 1147 pg/mL | IL-23 ([6]; Unstimulated): 424 pg/mL | IL-23 ([4]; Control (medium), treatment 3.5 ng/ml): 222 pg/mL | IL-23 ([4]; LTA 5 μg/ml, treatment 3.5 ng/ml): 223 pg/mL | TNF ([5]; LPS 20 ng/ml, treatment 3.5 ng/ml): 328 pg/mL | Mean Arthritic Score ([7]; Study Day 0): 0.0 | Mean Arthritic Score ([7]; Study Day 14): 0.4 | Mean Arthritic Score ([7]; Study Day 21): 0.0 | Mean Arthritic Score ([7]; Study Day 22): 0.0 | Mean Arthritic Score ([7]; Study Day 23): 0.0 | Mean Arthritic Score ([7]; Study Day 26): 0.0* | Mean Arthritic Score ([7]; Study Day 27): 0.0* | Mean Arthritic Score ([7]; Study Day 28): 0.0* | Mean Arthritic Score ([7]; Study Day 29): 0.0* | Mean Arthritic Score ([7]; Study Day 30): 0.0* | Mean Arthritic Score ([7]; Study Day 33): 0.0* | Mean Arthritic Score ([7]; Study Day 34): 0.0* | Mean Arthritic Score ([7]; Study Day 35): 0.0* | Mean Arthritic Score ([7]; Study Day 36): 0.0* | Mean Arthritic Score ([7]; Study Day 37): 0.0* | Mean Arthritic Score ([7]; Study Day 40): 0.0* | Mean Arthritic Score ([7]; Study Day 41): 0.0*

mBD3: mouse beta defensin 3, SEQ ID NO:6; produced recombinantly by the hBD2 protocol (KINNPVSCLRKGGRCWNRCIGNTRQIGSCGVPFLKCCKRK; ends and bridges not checked; cysteine pairing not given here; listed as Mus musculus)
TNF [1, 10]: 384 pg/mL | TNF ([1]; LPS 20 ng/ml, treatment 10 μg/ml, Table 21): 51 pg/mL | TNF ([1]; LPS 20 ng/ml, treatment 100 μg/ml, Table 21): 166 pg/mL | TNF [1, 11]: 2 pg/mL | TNF ([1]; Medium, treatment 10 μg/ml, Table 21): 2 pg/mL | TNF ([1]; Medium, treatment 100 μg/ml, Table 21): 39 pg/mL | TNF [5, 12]: 1600 pg/mL | TNF ([5]; LPS 20 ng/ml, treatment 10 μg/ml): 297 pg/mL | TNF ([5]; LPS 20 ng/ml, treatment 100 μg/ml): 195 pg/mL | TNF ([5]; Medium, treatment 1 μg/ml): 347 pg/mL | TNF ([5]; Medium, treatment 10 μg/ml): 180 pg/mL | TNF ([5]; Medium, treatment 100 μg/ml): 182 pg/mL
